Laboratory results reported in US11370847B2, “Single domain antibodies directed against intracellular antigens” (Singh Biotechnology, LLC, priority 2014, dated 2022).
Values joined by “and” are separate entries in the source; they are usually repeats but may differ in a detail not shown here. Equal values may be shown once. Read-outs that look alike come from different tables or passages of the source.

Legend:
SJSA-1 cells = assay: MTT proliferation assay, SJSA-1; type: cell-based, human; settings: for Mean Abs (±SD): 72 hours
[1] = system: Zika/DAKAR D41525 Senegal strain
MDA-MB-231 xenograft = settings: for Individual Tumor Measurements: listed as anti-STAT3 bacterial VHH13
[2] = Group 2, 1 mg/kg IP BID×14, day 20 (6/23/15)
[3] = Group 2, 1 mg/kg IP BID×14, day 23 (6/26/15)
[4] = Group 2, 1 mg/kg IP BID×14, day 26 (6/29/15)
[5] = Group 2, 1 mg/kg IP BID×14, day 29 (7/2/15)
[6] = Group 2, 1 mg/kg IP BID×14, day 33 (7/6/15)
[7] = Group 2, 1 mg/kg IP BID×14, day 36 (7/9/15)
[8] = Group 2, 1 mg/kg IP BID×14, day 42 (7/15/15)
[9] = Group 3, 2 mg/kg IP BID×14, day 20 (6/23/15)
[10] = Group 3, 2 mg/kg IP BID×14, day 23 (6/26/15)
[11] = Group 3, 2 mg/kg IP BID×14, day 26 (6/29/15)

anti-STAT3 VHH13: anti-STAT3 single-domain antibody, SEQ ID NO:3; bacterially produced, referred to as SBT-100
IC50 (SJSA-1 cells; SJSA, 72 hr): IC50 = 51 μg/ml | Mean Abs (±SD) (SJSA-1 cells; Table 72 (experiment 5a), SBT-100 3.13 μg/ml alone): 0.278 ± 0.057 | Mean Abs (±SD) (SJSA-1 cells; Table 72 (experiment 5a), SBT-100 6.25 μg/ml alone): 0.258 ± 0.097 | Mean Abs (±SD) (SJSA-1 cells; Table 72 (experiment 5a), SBT-100 25 μg/ml alone): 0.221 ± 0.034 | Mean Abs (±SD) (SJSA-1 cells; Table 72 (experiment 5a), SBT-100 50 μg/ml alone): 0.066 ± 0.003 | Mean Abs (±SD) (SJSA-1 cells; Table 72 (experiment 5a), SBT-100 100 μg/ml alone): 0.058 ± 0.002 | Mean Abs (±SD) (SJSA-1 cells; Table 73 (Experiment 2, 5b), SBT-100 3.13 μg/ml alone): 0.774 ± 0.068 | Mean Abs (±SD) (SJSA-1 cells; Table 73 (Experiment 2, 5b), SBT-100 6.25 μg/ml alone): 0.835 ± 0.058 | Mean Abs (±SD) (SJSA-1 cells; Table 73 (Experiment 2, 5b), SBT-100 25 μg/ml alone): 0.781 ± 0.057 | Mean Abs (±SD) (SJSA-1 cells; Table 73 (Experiment 2, 5b), SBT-100 50 μg/ml alone): 0.460 ± 0.038 | Mean Abs (±SD) (SJSA-1 cells; Table 73 (Experiment 2, 5b), SBT-100 100 μg/ml alone): 0.091 ± 0.002 | EC50 [1]: 11.04 ug/m | EC90 [1]: 48.11 µg/mL | % mean tumor growth inhibition (MDA-MB-231 xenograft; 500 μg/kg bw IP QD×14): 33.64% | mean tumor size (±SE) on day 14 of dosing (MDA-MB-231 xenograft; 500 μg/kg bw IP QD×14): 118.86±15.94 | tumor doubling time (MDA-MB-231 xenograft; 500 μg/kg bw IP QD×14, control 44.27 days): 61.06 days | % Inhibition Mean (MDA-MB-231 xenograft; [2]): 10.34% | % Inhibition Median (MDA-MB-231 xenograft; [2]): 18.61% | Tumor Mean Absolute (MDA-MB-231 xenograft; [2]): 82.92 mm^3 | Tumor Median Absolute (MDA-MB-231 xenograft; [2]): 80.66 mm^3 | Individual Tumor Measurements (MDA-MB-231 xenograft; [2]): 73.15 mm^3 and 80.11 mm^3 and 97.22 mm^3 and 81.21 mm^3 | % Inhibition Mean (MDA-MB-231 xenograft; [3]): 52.39% | % Inhibition Median (MDA-MB-231 xenograft; [3]): 43.28% | Tumor Mean Absolute (MDA-MB-231 xenograft; [3]): 66.17 mm^3 | Tumor Median Absolute (MDA-MB-231 xenograft; [3]): 65.55 mm^3 | Individual Tumor Measurements (MDA-MB-231 xenograft; [3]): 54.54 mm^3 and 76.56 mm^3 and 79.99 mm^3 and 53.58 mm^3 | % Inhibition Mean (MDA-MB-231 xenograft; [4]): 60.52% | % Inhibition Median (MDA-MB-231 xenograft; [4]): 50.54% | Tumor Mean Absolute (MDA-MB-231 xenograft; [4]): 68.07 mm^3 | Tumor Median Absolute (MDA-MB-231 xenograft; [4]): 68.80 mm^3 | Individual Tumor Measurements (MDA-MB-231 xenograft; [4]): 59.17 mm^3 and 80.34 mm^3 and 78.44 mm^3 and 54.34 mm^3 | % Inhibition Mean (MDA-MB-231 xenograft; [5]): 65.12% | % Inhibition Median (MDA-MB-231 xenograft; [5]): 61.81% | Tumor Mean Absolute (MDA-MB-231 xenograft; [5]): 68.32 mm^3 | Tumor Median Absolute (MDA-MB-231 xenograft; [5]): 63.66 mm^3 | Individual Tumor Measurements (MDA-MB-231 xenograft; [5]): 57.21 mm^3 and 88.75 mm^3 and 59.90 mm^3 and 67.43 mm^3 | % Inhibition Mean (MDA-MB-231 xenograft; [6]): 69.70% | % Inhibition Median (MDA-MB-231 xenograft; [6]): 72.26% | Tumor Mean Absolute (MDA-MB-231 xenograft; [6]): 67.12 mm^3 | Tumor Median Absolute (MDA-MB-231 xenograft; [6]): 56.75 mm^3 | Individual Tumor Measurements (MDA-MB-231 xenograft; [6]): 56.20 mm^3 and 99.09 mm^3 and 55.90 mm^3 and 57.30 mm^3 | % Inhibition Mean (MDA-MB-231 xenograft; [7]): 78.28% | % Inhibition Median (MDA-MB-231 xenograft; [7]): 79.75% | Tumor Mean Absolute (MDA-MB-231 xenograft; [7]): 51.81 mm^3 | Tumor Median Absolute (MDA-MB-231 xenograft; [7]): 45.40 mm^3 | Individual Tumor Measurements (MDA-MB-231 xenograft; [7]): 37.13 mm^3 and 87.42 mm^3 and 53.66 mm^3 and 29.02 mm^3 | % Inhibition Mean (MDA-MB-231 xenograft; [8]): 78.08% | % Inhibition Median (MDA-MB-231 xenograft; [8]): 76.74% | Tumor Mean Absolute (MDA-MB-231 xenograft; [8]): 55.98 mm^3 | Tumor Median Absolute (MDA-MB-231 xenograft; [8]): 56.29 mm^3 | Individual Tumor Measurements (MDA-MB-231 xenograft; [8]): 39.17 mm^3 and 72.18 mm^3 and 60.35 mm^3 and 52.23 mm^3 | growth delay (MDA-MB-231 xenograft; Group 2: 1 mg/kg bw IP BID×14): 13.99 days | mean growth inhibition (MDA-MB-231 xenograft; Group 2: 1 mg/kg bw IP BID×14): 78.3 | mean tumor size (±S.E.) at termination (day 42) (MDA-MB-231 xenograft; Group 2: 1 mg/kg bw IP BID×14): 55.98±6.94 | mean tumor size (±SE) at day 14 of dosing (MDA-MB-231 xenograft; Group 2: 1 mg/kg bw IP BID×14): 67.12±10.66 | % treatment/control (MDA-MB-231 xenograft; Group 2: 1 mg/kg bw IP BID×14, (tumor stasis)): −33.75% | tumor doubling time (MDA-MB-231 xenograft; Group 2: 1 mg/kg bw IP BID×14, control 20.56 days): 34.54 days | % Inhibition Mean (MDA-MB-231 xenograft; [9]): 16.19% | % Inhibition Median (MDA-MB-231 xenograft; [9]): 15.78% | Tumor Mean Absolute (MDA-MB-231 xenograft; [9]): 77.52 mm^3 | Tumor Median Absolute (MDA-MB-231 xenograft; [9]): 83.46 mm^3 | Individual Tumor Measurements (MDA-MB-231 xenograft; [9]): 56.41 mm^3 and 84.06 mm^3 and 82.87 mm^3 and 86.73 mm^3 | % Inhibition Mean (MDA-MB-231 xenograft; [10]): 59.06% | % Inhibition Median (MDA-MB-231 xenograft; [10]): 57.27% | Tumor Mean Absolute (MDA-MB-231 xenograft; [10]): 56.89 mm^3 | Tumor Median Absolute (MDA-MB-231 xenograft; [10]): 49.39 mm^3 | Individual Tumor Measurements (MDA-MB-231 xenograft; [10]): 43.61 mm^3 and 85.18 mm^3 and 54.78 mm^3 and 44.01 mm^3 | % Inhibition Mean (MDA-MB-231 xenograft; [11]): 77.83% | % Inhibition Median (MDA-MB-231 xenograft; [11]): 75.54% | Tumor Mean Absolute (MDA-MB-231 xenograft; [11]): 38.22 mm^3 | Tumor Median Absolute (MDA-MB-231 xenograft; [11]): 34.02 mm^3 | Individual Tumor Measurements (MDA-MB-231 xenograft; [11]): 33.13 mm^3 and 61.75 mm^3 and 34.92 mm^3 and 23.09 mm^3 | % Inhibition Mean (MDA-MB-231 xenograft; Group 3, 2 mg/kg IP BID×14, day 29 (7/2/15)): 76.54%
